Data taken from PubChem BioAssay AID1259407 (Chemical Carcinogenesis Research Information System (CCRIS), 2018).
Activity calls are given as the source filed them. No rule for the calls is given here.

Test system: CCRIS mutagenicity, Ames/micronucleus/aberration tests
Assay: CCRIS mutagenicity studies
[1] = Test System: AMES SALMONELLA TYPHIMURIUM, Strain/Indicator: TA98, Metabolic Activation: NONE, Method: PREINCUBATION
[2] = Test System: AMES SALMONELLA TYPHIMURIUM, Strain/Indicator: TA98, Metabolic Activation: NONE, Method: STANDARD PLATE
[3] = Test System: AMES SALMONELLA TYPHIMURIUM, Strain/Indicator: TA100, Metabolic Activation: NONE, Method: PREINCUBATION
[4] = Test System: AMES SALMONELLA TYPHIMURIUM, Strain/Indicator: TA100, Metabolic Activation: NONE, Method: STANDARD PLATE
[5] = Test System: AMES SALMONELLA TYPHIMURIUM, Strain/Indicator: TA1535, Metabolic Activation: NONE, Method: PREINCUBATION
[6] = Test System: AMES SALMONELLA TYPHIMURIUM, Strain/Indicator: TA1537, Metabolic Activation: NONE, Method: PREINCUBATION
[7] = Test System: AMES SALMONELLA TYPHIMURIUM, Strain/Indicator: TA1538, Metabolic Activation: NONE, Method: PREINCUBATION

**Q.** Which results are given for `C[Si]1(C)O[Si](C)(C)O[Si](C)(C)O[Si](C)(C)O1`?
**A.** mutagenic call [1]: inactive; negative; mutagenic call [2]: inactive; negative; mutagenic call (Test System: AMES SALMONELLA TYPHIMURIUM, Strain/Indicator: TA98, Metabolic Activation: RAT LIVER S-9, AROCLOR 1254, Method: PREINCUBATION): inactive; negative; mutagenic call (Test System: AMES SALMONELLA TYPHIMURIUM, Strain/Indicator: TA98, Metabolic Activation: RAT LIVER S-9, AROCLOR 1254, Method: STANDARD PLATE): inactive; negative; mutagenic call [3]: inactive; negative; mutagenic call [4]: inactive; negative; mutagenic call (Test System: AMES SALMONELLA TYPHIMURIUM, Strain/Indicator: TA100, Metabolic Activation: RAT LIVER S-9, AROCLOR 1254, Method: PREINCUBATION): inactive; negative; mutagenic call (Test System: AMES SALMONELLA TYPHIMURIUM, Strain/Indicator: TA100, Metabolic Activation: RAT LIVER S-9, AROCLOR 1254, Method: STANDARD PLATE): inactive; negative; mutagenic call [5]: inactive; negative; mutagenic call (Test System: AMES SALMONELLA TYPHIMURIUM, Strain/Indicator: TA1535, Metabolic Activation: NONE, Method: STANDARD PLATE): inactive; negative; mutagenic call (Test System: AMES SALMONELLA TYPHIMURIUM, Strain/Indicator: TA1535, Metabolic Activation: RAT LIVER S-9, AROCLOR 1254, Method: PREINCUBATION): inactive; negative; mutagenic call (Test System: AMES SALMONELLA TYPHIMURIUM, Strain/Indicator: TA1535, Metabolic Activation: RAT LIVER S-9, AROCLOR 1254, Method: STANDARD PLATE): inactive; negative; mutagenic call [6]: inactive; negative; mutagenic call (Test System: AMES SALMONELLA TYPHIMURIUM, Strain/Indicator: TA1537, Metabolic Activation: NONE, Method: STANDARD PLATE): inactive; negative; mutagenic call (Test System: AMES SALMONELLA TYPHIMURIUM, Strain/Indicator: TA1537, Metabolic Activation: RAT LIVER S-9, AROCLOR 1254, Method: PREINCUBATION): inactive; negative; mutagenic call (Test System: AMES SALMONELLA TYPHIMURIUM, Strain/Indicator: TA1537, Metabolic Activation: RAT LIVER S-9, AROCLOR 1254, Method: STANDARD PLATE): inactive; negative; mutagenic call [7]: inactive; negative; mutagenic call (Test System: AMES SALMONELLA TYPHIMURIUM, Strain/Indicator: TA1538, Metabolic Activation: NONE, Method: STANDARD PLATE): inactive; negative; mutagenic call (Test System: AMES SALMONELLA TYPHIMURIUM, Strain/Indicator: TA1538, Metabolic Activation: RAT LIVER S-9, AROCLOR 1254, Method: PREINCUBATION): inactive; negative; mutagenic call (Test System: AMES SALMONELLA TYPHIMURIUM, Strain/Indicator: TA1538, Metabolic Activation: RAT LIVER S-9, AROCLOR 1254, Method: STANDARD PLATE): inactive; negative; mutagenic call (Test System: E. COLI, Strain/Indicator: P3078 POLA, Metabolic Activation: NONE, Method: SPOT TEST): inactive; negative; mutagenic call (Test System: E. COLI, Strain/Indicator: P3078 POLA, Metabolic Activation: RAT LIVER S-9, AROCLOR 1254, Method: SPOT TEST): inactive; negative; mutagenic call (Test System: E. COLI, Strain/Indicator: W3110, Metabolic Activation: NONE, Method: SPOT TEST): inactive; negative; mutagenic call (Test System: E. COLI, Strain/Indicator: W3110, Metabolic Activation: RAT LIVER S-9, AROCLOR 1254, Method: SPOT TEST): inactive; negative; mutagenic call (Test System: MOUSE LYMPHOMA, Strain/Indicator: L5178Y (TK+/TK-), Metabolic Activation: NONE, Method: SUSPENSION/PLATE): inactive; negative; mutagenic call (Test System: MOUSE LYMPHOMA, Strain/Indicator: L5178Y (TK+/TK-), Metabolic Activation: RAT, LIVER, S-9, Method: SUSPENSION/PLATE): inactive; negative; mutagenic call (Test System: Mouse lymphoma, Strain/Indicator: L5178Y (tk+/tk-), Metabolic Activation: None, Method: Suspension/plate): inactive; inconclusive (previous evaluation negative); mutagenic call (Test System: Mouse lymphoma, Strain/Indicator: L5178Y (tk+/tk-), Metabolic Activation: Rat, Liver, S-9, Aroclor 1254, Method: Suspension/plate): inactive; negative

**Q.** Which mutagenic call (Test System: AMES SALMONELLA TYPHIMURIUM, Strain/Indicator: TA97, Metabolic Activation: NONE, Method: STANDARD PLATE) does the source give for `c1cc2ccc3ccc4ccc5ccc6ccc1c1c2c3c4c5c61` here?
**A.** inactive; negative

**Q.** What about the mutagenic call (Test System: AMES SALMONELLA TYPHIMURIUM, Strain/Indicator: TA97, Metabolic Activation: RAT, LIVER, S-9, PCB, Method: STANDARD PLATE) of the same molecule?
**A.** active; positive

**Q.** And the mutagenic call [2]?
**A.** inactive; negative

**Q.** And the mutagenic call (Test System: AMES SALMONELLA TYPHIMURIUM, Strain/Indicator: TA98, Metabolic Activation: RAT, LIVER, S-9, AROCLOR 1254, Method: FLUCTUATION)?
**A.** active; positive

**Q.** What about the mutagenic call (Test System: AMES SALMONELLA TYPHIMURIUM, Strain/Indicator: TA98, Metabolic Activation: RAT, LIVER, S-9, AROCLOR 1254, Method: STANDARD PLATE) of the same molecule?
**A.** active; positive

**Q.** What about the mutagenic call (Test System: AMES SALMONELLA TYPHIMURIUM, Strain/Indicator: TA98, Metabolic Activation: RAT, LIVER, S-9, PCB, Method: STANDARD PLATE) of the same molecule?
**A.** active; positive

**Q.** And the mutagenic call [4]?
**A.** inactive; negative

**Q.** What about the mutagenic call (Test System: AMES SALMONELLA TYPHIMURIUM, Strain/Indicator: TA100, Metabolic Activation: RAT, LIVER, S-9, PCB, Method: STANDARD PLATE) of the same molecule?
**A.** inactive; negative

**Q.** What about the mutagenic call (Test System: AMES SALMONELLA TYPHIMURIUM, Strain/Indicator: TA1537, Metabolic Activation: RAT, LIVER, S-9, AROCLOR 1254, Method: STANDARD PLATE) of the same molecule?
**A.** active; positive

**Q.** And the mutagenic call (Test System: AMES SALMONELLA TYPHIMURIUM, Strain/Indicator: TA1538, Metabolic Activation: RAT, LIVER, S-9, AROCLOR 1254, Method: STANDARD PLATE)?
**A.** active; positive

**Q.** How did the mutagenic call [1] turn out when `CCCC(=O)O[C@H]1[C@H](C)O[C@@H](O[C@H]2[C@H](N(C)C)[C@@H](O)[C@H](O[C@H]3[C@@H](CC=O)C[C@@H](C)[C@@H](O)/C=C/C=C/C[C@@H](C)OC(=O)C[C@@H](O)[C@@H]3OC)O[C@@H]2C)C[C@@]1(C)OC(=O)CC` was run?
**A.** inactive; negative

**Q.** And the mutagenic call (Test System: AMES SALMONELLA TYPHIMURIUM, Strain/Indicator: TA98, Metabolic Activation: RAT, LIVER, S-9, AROCLOR 1254, Method: PREINCUBATION)?
**A.** inactive; negative

**Q.** What about the mutagenic call [3] of the same molecule?
**A.** inactive; negative

**Q.** What about the mutagenic call (Test System: AMES SALMONELLA TYPHIMURIUM, Strain/Indicator: TA100, Metabolic Activation: RAT, LIVER, S-9, AROCLOR 1254, Method: PREINCUBATION) of the same molecule?
**A.** inactive; negative

**Q.** And the mutagenic call [5]?
**A.** inactive; negative

**Q.** And the mutagenic call (Test System: AMES SALMONELLA TYPHIMURIUM, Strain/Indicator: TA1535, Metabolic Activation: RAT, LIVER, S-9, AROCLOR 1254, Method: PREINCUBATION)?
**A.** inactive; negative

**Q.** What about the mutagenic call [6] of the same molecule?
**A.** inactive; negative

**Q.** And the mutagenic call (Test System: AMES SALMONELLA TYPHIMURIUM, Strain/Indicator: TA1537, Metabolic Activation: RAT, LIVER, S-9, AROCLOR 1254, Method: PREINCUBATION)?
**A.** inactive; negative

**Q.** What about the mutagenic call [7] of the same molecule?
**A.** inactive; negative

**Q.** And the mutagenic call (Test System: AMES SALMONELLA TYPHIMURIUM, Strain/Indicator: TA1538, Metabolic Activation: RAT, LIVER, S-9, AROCLOR 1254, Method: PREINCUBATION)?
**A.** inactive; negative

**Q.** What about the mutagenic call (Test System: E. COLI, Strain/Indicator: WP2 UVRA, Metabolic Activation: NONE, Method: PREINCUBATION) of the same molecule?
**A.** inactive; negative

**Q.** What about the mutagenic call (Test System: E. COLI, Strain/Indicator: WP2 UVRA, Metabolic Activation: RAT, LIVER, S-9, AROCLOR 1254, Method: PREINCUBATION) of the same molecule?
**A.** inactive; negative

**Q.** With `C[C@H](CCC(=O)O)[C@H]1CC[C@H]2[C@@H]3C(=O)C[C@@H]4CC(=O)CC[C@]4(C)[C@H]3CC[C@]12C` as the molecule, how does the mutagenic call (Test System: AMES SALMONELLA TYPHIMURIUM, Strain/Indicator: TA98, Metabolic Activation: NONE, Method: FLUCTUATION TEST) read?
**A.** inactive; negative

**Q.** And the mutagenic call [1]?
**A.** inactive; negative

**Q.** What about the mutagenic call (Test System: AMES SALMONELLA TYPHIMURIUM, Strain/Indicator: TA98, Metabolic Activation: RAT, LIVER, S-9, PCB, Method: PREINCUBATION) of the same molecule?
**A.** inactive; negative

**Q.** What about the mutagenic call (Test System: AMES SALMONELLA TYPHIMURIUM, Strain/Indicator: TA100, Metabolic Activation: NONE, Method: FLUCTUATION TEST) of the same molecule?
**A.** inactive; negative

**Q.** Which results are given for `Nc1cc2cccc3ccc4cccc1c4c32`?
**A.** mutagenic call (Test System: AMES SALMONELLA TYPHIMURIUM, Strain/Indicator: TA98, Metabolic Activation: RAT, LIVER, S-9, AROCLOR 1254 (2 OR 4%), Method: STANDARD PLATE): active; positive; mutagenic call (Test System: AMES SALMONELLA TYPHIMURIUM, Strain/Indicator: TA100, Metabolic Activation: RAT, LIVER, S-9, AROCLOR 1254 (2%), Method: STANDARD PLATE): active; positive; mutagenic call (Test System: AMES SALMONELLA TYPHIMURIUM, Strain/Indicator: TA1535, Metabolic Activation: RAT, LIVER, S-9, AROCLOR 1254 (2%), Method: STANDARD PLATE): inactive; negative; mutagenic call (Test System: AMES SALMONELLA TYPHIMURIUM, Strain/Indicator: TA1537, Metabolic Activation: RAT, LIVER, S-9, AROCLOR 1254 (2%), Method: STANDARD PLATE): active; positive
